Measurements: ChEMBL document CHEMBL1201862, “PubChem BioAssay data set” (2004)
Active and inactive are the calls of the source.

Legend:
[1] = target: Nonstructural protein 1 (Influenza A virus, UniProt Q194T2); format: functional, Influenza A virus (A/California/07/2009(H1N1))
[2] = target: T1, Replicative DNA helicase DnaB (Mycobacterium tuberculosis, UniProt P9WMR3); assay: DnaB intein splicing inhibitors, dose response, biochemical, cell-free fluorescence (AID 449749); format: functional
T1 sequence (P9WMR3 whole entry): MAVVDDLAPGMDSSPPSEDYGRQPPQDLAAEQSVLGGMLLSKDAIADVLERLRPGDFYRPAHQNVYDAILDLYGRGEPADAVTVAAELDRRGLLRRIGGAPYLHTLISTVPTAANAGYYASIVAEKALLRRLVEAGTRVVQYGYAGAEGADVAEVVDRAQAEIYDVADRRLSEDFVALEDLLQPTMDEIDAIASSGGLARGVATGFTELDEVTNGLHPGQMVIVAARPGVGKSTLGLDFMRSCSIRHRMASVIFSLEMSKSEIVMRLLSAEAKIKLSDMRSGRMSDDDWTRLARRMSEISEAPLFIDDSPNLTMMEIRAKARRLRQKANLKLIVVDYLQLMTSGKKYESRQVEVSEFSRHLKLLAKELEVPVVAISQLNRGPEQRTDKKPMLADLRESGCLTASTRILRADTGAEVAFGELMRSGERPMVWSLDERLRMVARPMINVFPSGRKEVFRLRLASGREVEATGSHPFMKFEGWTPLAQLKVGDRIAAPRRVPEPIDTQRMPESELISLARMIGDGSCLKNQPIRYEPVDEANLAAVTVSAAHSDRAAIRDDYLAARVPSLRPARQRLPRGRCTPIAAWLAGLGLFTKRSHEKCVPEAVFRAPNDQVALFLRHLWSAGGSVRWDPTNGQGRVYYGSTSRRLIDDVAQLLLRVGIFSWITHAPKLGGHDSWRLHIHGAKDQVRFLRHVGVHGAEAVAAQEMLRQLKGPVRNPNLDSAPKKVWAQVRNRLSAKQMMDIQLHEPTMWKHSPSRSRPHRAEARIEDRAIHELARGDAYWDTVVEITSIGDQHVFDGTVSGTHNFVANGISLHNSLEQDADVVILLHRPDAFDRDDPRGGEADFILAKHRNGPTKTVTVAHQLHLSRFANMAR

[3] = target: T2, Protein RecA (Mycobacterium tuberculosis, UniProt P9WHJ3); assay: Fluorescence Cell-Free Homogeneous Dose Retest to Identify Inhibitors of RecA-Intein Splicing Activity. [Related pubchem assays (depositor defined):AID2097, AID2223, AID489010, AID492950]; format: functional
T2 sequence (P9WHJ3 whole entry): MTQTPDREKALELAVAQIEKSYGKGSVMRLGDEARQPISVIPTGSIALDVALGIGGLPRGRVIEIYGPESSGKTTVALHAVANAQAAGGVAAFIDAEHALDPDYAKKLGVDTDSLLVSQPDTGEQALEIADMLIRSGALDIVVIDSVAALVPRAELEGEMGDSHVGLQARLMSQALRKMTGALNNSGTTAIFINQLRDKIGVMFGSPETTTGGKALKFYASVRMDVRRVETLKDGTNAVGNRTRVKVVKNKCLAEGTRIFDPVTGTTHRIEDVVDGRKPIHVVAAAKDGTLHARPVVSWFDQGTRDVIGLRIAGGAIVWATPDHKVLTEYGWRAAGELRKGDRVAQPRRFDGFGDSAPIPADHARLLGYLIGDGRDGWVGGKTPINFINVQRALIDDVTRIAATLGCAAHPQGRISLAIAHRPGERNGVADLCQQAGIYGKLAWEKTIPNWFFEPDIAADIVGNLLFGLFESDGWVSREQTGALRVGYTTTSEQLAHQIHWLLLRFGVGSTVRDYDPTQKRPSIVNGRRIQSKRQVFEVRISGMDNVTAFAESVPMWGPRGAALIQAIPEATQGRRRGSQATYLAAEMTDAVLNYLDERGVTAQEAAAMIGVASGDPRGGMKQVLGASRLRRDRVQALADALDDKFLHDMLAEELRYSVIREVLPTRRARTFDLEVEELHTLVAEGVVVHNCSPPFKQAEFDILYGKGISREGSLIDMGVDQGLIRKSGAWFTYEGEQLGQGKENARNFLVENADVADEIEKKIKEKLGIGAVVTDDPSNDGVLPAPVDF

[4] = target: fMet-Leu-Phe receptor (Homo sapiens, UniProt P21462); assay: formyl peptide receptor binders – dose response (AID 519); format: functional
Sequence of fMet-Leu-Phe receptor (P21462 whole entry): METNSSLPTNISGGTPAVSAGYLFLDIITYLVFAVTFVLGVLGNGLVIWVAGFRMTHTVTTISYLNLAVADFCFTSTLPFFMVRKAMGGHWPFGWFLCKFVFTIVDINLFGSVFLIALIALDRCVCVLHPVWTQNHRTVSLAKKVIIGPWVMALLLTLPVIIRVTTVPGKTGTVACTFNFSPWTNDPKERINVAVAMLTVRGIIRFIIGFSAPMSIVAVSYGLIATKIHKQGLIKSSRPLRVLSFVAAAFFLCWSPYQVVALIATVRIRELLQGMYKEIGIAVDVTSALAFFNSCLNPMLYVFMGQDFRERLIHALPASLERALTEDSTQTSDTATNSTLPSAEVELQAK

[5] = target: T3, Leucine aminopeptidase (Plasmodium falciparum 3D7, UniProt Q8IL11); assay: P. falciparum M17LAP inhibitors, primary screen, biochemical, fluorogenic H-Leu-NHMec substrate, 1536-well (AID 1619); format: functional
T3 sequence (Q8IL11 whole entry): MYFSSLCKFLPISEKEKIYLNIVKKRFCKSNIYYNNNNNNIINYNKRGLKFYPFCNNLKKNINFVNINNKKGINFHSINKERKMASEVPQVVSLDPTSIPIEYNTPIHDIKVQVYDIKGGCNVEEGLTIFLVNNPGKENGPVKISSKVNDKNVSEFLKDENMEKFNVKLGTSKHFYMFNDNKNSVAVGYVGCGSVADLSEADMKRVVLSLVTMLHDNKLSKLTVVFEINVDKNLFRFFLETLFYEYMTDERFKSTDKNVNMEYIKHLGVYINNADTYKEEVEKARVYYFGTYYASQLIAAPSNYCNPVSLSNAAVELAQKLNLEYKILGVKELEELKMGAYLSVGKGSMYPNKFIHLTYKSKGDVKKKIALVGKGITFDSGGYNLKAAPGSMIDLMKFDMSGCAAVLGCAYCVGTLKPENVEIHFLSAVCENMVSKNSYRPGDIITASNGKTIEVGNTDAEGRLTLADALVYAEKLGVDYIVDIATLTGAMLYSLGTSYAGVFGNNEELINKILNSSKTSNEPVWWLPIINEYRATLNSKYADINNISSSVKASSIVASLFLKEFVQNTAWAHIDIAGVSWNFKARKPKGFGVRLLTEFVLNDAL

[6] = target: Peroxisome proliferator-activated receptor gamma/Nuclear receptor coactivator 2 (Homo sapiens, UniProt P37231); format: functional;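 note: agonist potency for raising coactivator recruitment to the receptor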
[7] = target: Peroxisome proliferator-activated receptor gamma/Nuclear receptor coactivator 1 (Homo sapiens, UniProt P37231); format: functional;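 note: agonist potency as compounds enhance coactivator SRC-1 recruitment to PPARgamma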
[8] = target: Peroxisome proliferator-activated receptor gamma/Nuclear receptor coactivator 3 (Homo sapiens, UniProt P37231); format: functional;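 note: agonist potency for raising coactivator recruitment to the receptor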
[9] = target: Mucolipin-3 (Homo sapiens, UniProt Q8TDD5); assay: Dose response cell-based high-throughput screening assay for agonists of the transient receptor potential channel ML3 (TRPML3). [Related pubchem assays: 1526, 1424, 1448 ]; format: functional
Sequence of Mucolipin-3 (Q8TDD5 whole entry): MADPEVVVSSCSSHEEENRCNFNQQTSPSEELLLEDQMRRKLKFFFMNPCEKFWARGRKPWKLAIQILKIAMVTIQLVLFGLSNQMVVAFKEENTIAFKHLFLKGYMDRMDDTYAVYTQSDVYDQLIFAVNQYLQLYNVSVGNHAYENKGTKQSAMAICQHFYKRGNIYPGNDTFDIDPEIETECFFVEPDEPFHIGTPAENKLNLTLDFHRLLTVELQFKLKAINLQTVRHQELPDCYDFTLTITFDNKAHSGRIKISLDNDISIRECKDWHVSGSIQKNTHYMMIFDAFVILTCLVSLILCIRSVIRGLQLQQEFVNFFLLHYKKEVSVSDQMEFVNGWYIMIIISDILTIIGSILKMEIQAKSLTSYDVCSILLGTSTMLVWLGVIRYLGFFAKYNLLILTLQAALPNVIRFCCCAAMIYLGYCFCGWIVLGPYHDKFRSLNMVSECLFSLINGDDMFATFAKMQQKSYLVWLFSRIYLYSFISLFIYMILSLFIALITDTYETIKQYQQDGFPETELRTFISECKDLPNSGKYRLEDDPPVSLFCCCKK

[10] = target: Ion channel NompC (Danio rerio, UniProt Q7T1G6); assay: Fluorescence counterscreen assay for TRPML3 agonists: dose response cell-based high-throughput screening assay to identify agonists of the transient receptor potential channel N1 (TRPN1). [Related pubchem assays: 1526, 1424, 1448 ]; format: functional
Sequence of Ion channel NompC (Q7T1G6 whole entry, the tested form may be a part): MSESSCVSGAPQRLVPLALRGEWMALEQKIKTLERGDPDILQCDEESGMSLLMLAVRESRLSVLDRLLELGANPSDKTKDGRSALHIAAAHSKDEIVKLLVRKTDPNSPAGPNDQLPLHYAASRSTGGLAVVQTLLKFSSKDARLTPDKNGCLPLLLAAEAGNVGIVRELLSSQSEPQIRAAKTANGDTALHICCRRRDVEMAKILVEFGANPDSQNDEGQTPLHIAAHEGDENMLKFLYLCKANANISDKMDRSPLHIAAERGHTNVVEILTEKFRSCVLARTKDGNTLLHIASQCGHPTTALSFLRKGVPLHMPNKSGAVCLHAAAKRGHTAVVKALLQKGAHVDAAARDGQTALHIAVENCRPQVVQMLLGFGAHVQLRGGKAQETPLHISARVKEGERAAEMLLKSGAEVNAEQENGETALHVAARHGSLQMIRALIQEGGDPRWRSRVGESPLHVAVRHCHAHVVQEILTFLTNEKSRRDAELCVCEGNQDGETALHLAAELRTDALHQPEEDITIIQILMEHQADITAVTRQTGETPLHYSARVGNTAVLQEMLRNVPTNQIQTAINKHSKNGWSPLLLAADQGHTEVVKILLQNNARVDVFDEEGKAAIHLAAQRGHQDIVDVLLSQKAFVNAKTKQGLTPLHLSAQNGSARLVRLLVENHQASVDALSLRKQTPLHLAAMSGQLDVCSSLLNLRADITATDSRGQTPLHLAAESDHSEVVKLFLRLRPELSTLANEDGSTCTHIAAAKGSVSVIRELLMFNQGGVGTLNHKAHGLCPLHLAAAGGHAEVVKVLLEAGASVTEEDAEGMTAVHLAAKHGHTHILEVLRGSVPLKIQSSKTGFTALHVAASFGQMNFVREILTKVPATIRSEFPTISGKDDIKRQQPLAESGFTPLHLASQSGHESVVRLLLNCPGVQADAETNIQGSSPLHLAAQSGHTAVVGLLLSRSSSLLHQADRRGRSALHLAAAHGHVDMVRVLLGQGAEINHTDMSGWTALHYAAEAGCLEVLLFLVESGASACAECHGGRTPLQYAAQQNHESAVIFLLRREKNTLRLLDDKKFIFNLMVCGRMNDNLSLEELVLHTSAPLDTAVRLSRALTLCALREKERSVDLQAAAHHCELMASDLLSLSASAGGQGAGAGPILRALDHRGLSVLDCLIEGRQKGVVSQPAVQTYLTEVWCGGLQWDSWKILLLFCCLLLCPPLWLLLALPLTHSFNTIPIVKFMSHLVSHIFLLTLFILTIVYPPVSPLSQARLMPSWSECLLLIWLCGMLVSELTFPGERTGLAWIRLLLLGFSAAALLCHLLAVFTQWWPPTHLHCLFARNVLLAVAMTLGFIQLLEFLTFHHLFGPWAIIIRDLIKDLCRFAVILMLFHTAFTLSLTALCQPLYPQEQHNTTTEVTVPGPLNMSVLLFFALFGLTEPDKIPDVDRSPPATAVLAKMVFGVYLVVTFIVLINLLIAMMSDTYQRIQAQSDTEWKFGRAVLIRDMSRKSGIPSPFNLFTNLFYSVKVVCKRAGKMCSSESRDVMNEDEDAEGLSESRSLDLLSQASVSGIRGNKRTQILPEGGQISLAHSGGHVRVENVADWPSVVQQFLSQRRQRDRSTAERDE

[11] = target: T4, Oxysterols receptor LXR-beta (Homo sapiens, UniProt P55055); format: functional, cell-based;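 note: agonist activity at LXR measured by a cell-based luminescence readout across a dose range, run as a counterscreen for daf-12 agonists; HEK293 cells with Gal4-LXR fusion and GAL4-driven luciferase reporter; potency for activation of Gal4-LXR reporter so compounds are agonists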
T4 sequence (P55055 whole entry): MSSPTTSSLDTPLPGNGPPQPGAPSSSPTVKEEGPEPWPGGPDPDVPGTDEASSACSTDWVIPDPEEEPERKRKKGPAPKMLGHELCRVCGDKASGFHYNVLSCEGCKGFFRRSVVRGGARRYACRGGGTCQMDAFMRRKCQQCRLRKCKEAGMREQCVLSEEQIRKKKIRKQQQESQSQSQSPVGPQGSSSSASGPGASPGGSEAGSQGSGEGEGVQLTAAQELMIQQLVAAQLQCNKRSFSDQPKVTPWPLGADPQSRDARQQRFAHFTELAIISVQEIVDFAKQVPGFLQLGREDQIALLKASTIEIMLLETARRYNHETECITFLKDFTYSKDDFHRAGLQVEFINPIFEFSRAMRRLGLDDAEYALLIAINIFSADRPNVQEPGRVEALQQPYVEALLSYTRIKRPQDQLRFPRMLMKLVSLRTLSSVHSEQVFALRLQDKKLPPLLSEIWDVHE

[12] = tested on: Streptococcus sp. 'group A'; assay: Streptococcus pyogenes SK(-)GAS viability under kanamycin – luminescence, BacTiterGlo, confirmation, counter-screen for streptokinase expression inhibitor project, dose response (AID 1900); format: functional, organism-based
[13] = target: T5, Streptokinase A (Streptococcus pyogenes serotype M1, UniProt P10520); assay: viability-normalized secreted streptokinase activity reduction – plasminogen activation absorbance, OD405, dose response (AID 1914); format: functional, Streptococcus pyogenes M1 GAS;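 note: secreted streptokinase activity via plasminogen activation per viability signal from cell pellet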
T5 sequence (P10520 whole entry): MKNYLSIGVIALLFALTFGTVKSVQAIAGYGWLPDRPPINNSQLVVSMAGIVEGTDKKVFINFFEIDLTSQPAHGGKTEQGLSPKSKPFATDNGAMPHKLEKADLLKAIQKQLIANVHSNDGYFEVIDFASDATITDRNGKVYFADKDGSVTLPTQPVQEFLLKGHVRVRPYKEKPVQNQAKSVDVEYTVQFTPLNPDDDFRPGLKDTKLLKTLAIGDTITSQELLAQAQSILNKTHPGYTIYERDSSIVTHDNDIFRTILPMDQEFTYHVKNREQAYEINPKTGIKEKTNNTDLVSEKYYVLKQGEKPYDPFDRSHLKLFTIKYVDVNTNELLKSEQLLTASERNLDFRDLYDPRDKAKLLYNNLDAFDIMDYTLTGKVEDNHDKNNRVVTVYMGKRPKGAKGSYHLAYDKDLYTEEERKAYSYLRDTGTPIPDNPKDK

[14] = tested on: Streptococcus; assay: GAS UMAA2166 growth inhibition – luminescence, BacTiterGlo, counter-screen for streptokinase expression inhibitor project, dose response (AID 1915); format: functional, organism-based;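 note: potency for reduction of bacterial viability or growth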
[15] = target: Disintegrin and metalloproteinase domain-containing protein 17 (Homo sapiens, UniProt P78536); assay: exosite inhibitors of ADAM17, dose response, biochemical (AID 743260)
Sequence of Disintegrin and metalloproteinase domain-containing protein 17 (P78536 whole entry, the tested form may be a part): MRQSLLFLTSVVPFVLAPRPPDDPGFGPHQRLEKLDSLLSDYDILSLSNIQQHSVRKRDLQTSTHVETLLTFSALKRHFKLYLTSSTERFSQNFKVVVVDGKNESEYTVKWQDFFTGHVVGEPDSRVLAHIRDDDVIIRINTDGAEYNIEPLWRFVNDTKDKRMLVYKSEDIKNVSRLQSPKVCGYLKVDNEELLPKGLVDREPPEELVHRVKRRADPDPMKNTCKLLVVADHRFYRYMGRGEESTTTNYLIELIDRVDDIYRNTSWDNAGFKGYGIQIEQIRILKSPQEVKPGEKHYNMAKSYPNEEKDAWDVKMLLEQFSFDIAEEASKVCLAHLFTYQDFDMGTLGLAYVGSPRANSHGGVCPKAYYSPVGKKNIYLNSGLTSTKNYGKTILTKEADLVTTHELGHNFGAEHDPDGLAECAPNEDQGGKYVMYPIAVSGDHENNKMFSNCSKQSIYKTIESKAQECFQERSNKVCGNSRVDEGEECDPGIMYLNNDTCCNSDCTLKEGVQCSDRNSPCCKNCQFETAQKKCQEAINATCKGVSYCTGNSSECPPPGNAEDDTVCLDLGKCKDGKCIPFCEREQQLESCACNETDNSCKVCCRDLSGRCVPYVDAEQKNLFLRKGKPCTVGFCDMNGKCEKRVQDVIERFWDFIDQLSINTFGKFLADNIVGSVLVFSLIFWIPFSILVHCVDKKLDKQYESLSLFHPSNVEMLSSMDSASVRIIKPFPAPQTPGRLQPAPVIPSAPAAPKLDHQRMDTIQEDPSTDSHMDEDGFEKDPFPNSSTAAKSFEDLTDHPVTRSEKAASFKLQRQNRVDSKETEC

[16] = target: Metabotropic glutamate receptor 5 (Rattus norvegicus, UniProt P31424); assay: Identification of a glycine sulfonamide based non-MPEP site positive allosteric potentiator (PAM) of mGlu5 (calcium_assay).; format: functional
Sequence of Metabotropic glutamate receptor 5 (P31424 whole entry): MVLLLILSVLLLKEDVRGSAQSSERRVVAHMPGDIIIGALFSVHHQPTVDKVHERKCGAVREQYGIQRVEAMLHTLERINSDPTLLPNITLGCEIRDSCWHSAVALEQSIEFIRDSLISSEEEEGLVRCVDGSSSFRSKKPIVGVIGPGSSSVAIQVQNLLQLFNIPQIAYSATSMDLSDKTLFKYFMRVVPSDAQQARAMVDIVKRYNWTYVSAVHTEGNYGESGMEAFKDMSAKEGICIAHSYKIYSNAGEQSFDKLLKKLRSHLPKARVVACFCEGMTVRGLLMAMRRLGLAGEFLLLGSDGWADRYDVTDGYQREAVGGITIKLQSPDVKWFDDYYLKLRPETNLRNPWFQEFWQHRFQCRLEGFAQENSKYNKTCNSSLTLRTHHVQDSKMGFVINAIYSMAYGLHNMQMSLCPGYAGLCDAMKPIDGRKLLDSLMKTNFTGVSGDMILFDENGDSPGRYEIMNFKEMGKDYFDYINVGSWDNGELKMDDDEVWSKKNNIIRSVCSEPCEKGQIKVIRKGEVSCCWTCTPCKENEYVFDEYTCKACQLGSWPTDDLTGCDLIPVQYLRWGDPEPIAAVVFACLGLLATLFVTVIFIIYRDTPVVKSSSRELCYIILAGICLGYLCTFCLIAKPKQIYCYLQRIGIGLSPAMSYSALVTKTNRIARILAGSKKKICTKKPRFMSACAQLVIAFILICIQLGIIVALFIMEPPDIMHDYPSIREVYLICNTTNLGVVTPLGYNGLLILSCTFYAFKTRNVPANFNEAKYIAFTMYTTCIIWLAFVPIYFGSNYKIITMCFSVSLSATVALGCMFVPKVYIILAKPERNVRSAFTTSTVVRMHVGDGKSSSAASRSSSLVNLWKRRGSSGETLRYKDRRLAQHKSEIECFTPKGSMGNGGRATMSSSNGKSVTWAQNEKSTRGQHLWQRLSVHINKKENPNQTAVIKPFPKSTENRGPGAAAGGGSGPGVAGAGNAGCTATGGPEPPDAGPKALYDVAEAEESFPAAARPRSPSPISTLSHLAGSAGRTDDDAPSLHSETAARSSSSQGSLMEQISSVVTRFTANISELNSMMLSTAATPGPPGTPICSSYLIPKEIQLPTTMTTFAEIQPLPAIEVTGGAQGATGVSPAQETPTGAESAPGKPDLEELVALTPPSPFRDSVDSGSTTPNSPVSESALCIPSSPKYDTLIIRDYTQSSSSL

[17] = Late stage assay provider results from the probe development effort to identify selective inhibitors of heat shock protein 90 (HSP90): Absorbance-based cell proliferation assay in SKBR3 cells.; format: functional; settings: SK-BR-3
[18] = Late stage assay provider results from the probe development effort to identify selective inhibitors of heat shock protein 90 (HSP90): Absorbance-based cell proliferation assay in MCF7 cells.; format: functional

Sequence of Nonstructural protein 1 (Q194T2 whole entry): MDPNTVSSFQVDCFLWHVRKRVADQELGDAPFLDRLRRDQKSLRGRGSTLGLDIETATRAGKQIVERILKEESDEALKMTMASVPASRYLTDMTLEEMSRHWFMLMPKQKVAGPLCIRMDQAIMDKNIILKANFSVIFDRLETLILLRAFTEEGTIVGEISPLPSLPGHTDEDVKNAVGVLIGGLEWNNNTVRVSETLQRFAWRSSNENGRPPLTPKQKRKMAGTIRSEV

Question: Which IC50 [1] does the source give for `Nc1ccc(Nc2ccccc2N)cc1` here?
Answer: Its IC50 is 8.33 µM (active).

Question: And the AC50 [2]?
Answer: The AC50 was 17.9 µM (active).

Question: And the EC50 [3]?
Answer: Its EC50 is 6.86 µM (active).

Question: What about the Ki [4] of the same compound?
Answer: The Ki was > 66.7 µM (inactive).

Question: Which results are given for `C=CCN1C=CC(=C/C=C(/C#N)C(=O)OCC)C=C1`?
Answer: IC50 [5]: 72.5 µM (active); EC50 [6]: > 79.4 µM (not active); EC50 [7]: > 79.4 µM (not active); EC50 [8]: > 79.4 µM (not active); EC50 [9]: 15.3 µM (not active); EC50 [10]: 6.09 µM (active); EC50 [11]: > 67.5 µM (inactive)

Question: What does the source list for `Cc1cc(SCC(=O)c2ccc(O)c(O)c2)n2nc(C)c(-c3ccccc3)c2n1`?
Answer: EC50 [12]: 7.32 µM (active); EC50 [13]: > 150 µM (not active); EC50 [14]: 13.9 µM (active); IC50 [15]: > 69.5 µM (inactive)

Question: Which EC50 [16] does the source give for `CS(=O)(=O)N(CC(=O)Nc1ccccn1)c1cc(C(F)(F)F)ccc1Cl` here?
Answer: The EC50 was 0.085 µM.

Question: Which results are given for `CC(=O)c1ccc(NC(=O)c2ccc(=O)oc2)cc1`?
Answer: IC50 [17]: > 100 µM (inactive); IC50 [18]: > 100 µM (inactive)
